Test results as given in the supplement of paper PMC10307832.

Experiments:
Test in all cases: relative viability (nuclei count vs DMSO), 5 days (fraction); higher = more cells survive
Mirin + Phenformin = compound: N=C1NC(=O)/C(=C/c2ccc(O)cc2)S1 [Mirin] + N=C(N)NC(=N)NCCc1ccccc1 [Phenformin] (partner 250 µM)
How it was run: (§1)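 Medians of duplicate plates are given as relative viability. That measure is the nuclei count in treated wells divided by the count in vehicle wells. Counts were taken on 4× images of lung cancer cell lines in 1536-well plates, 5 days after pin-tool dosing the day after seeding with one drug alone or a fixed anchor-drug dose plus five library-drug doses (not always all listed) in √10 steps.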

[1] = compound: CCC1=CN=CN=C1N2CCN(CC2)CC3=NC4=C(N3)C=C(C=C4)C(F)(F)F + COc1cccc2cc(-c3nc([C@H]4CC[C@H](C(=O)O)CC4)n4ncnc(N)c34)[nH]c12 [OSI-027] (partner 0.5 µM)
How it was run: as §1

Mirin + OSI-027 = compound: N=C1NC(=O)/C(=C/c2ccc(O)cc2)S1 [Mirin] + COc1cccc2cc(-c3nc([C@H]4CC[C@H](C(=O)O)CC4)n4ncnc(N)c34)[nH]c12 [OSI-027] (partner 0.5 µM)
How it was run: as §1

[2] = compound: CCn1c(-c2nonc2N)nc2cnc(Oc3cccc(NC(=O)c4ccc(OCCN5CCOCC5)cc4)c3)cc21 + NC(=O)Nc1cc(-c2cccc(F)c2)sc1C(=O)N[C@H]1CCCNC1 [AZD7762] (partner 0.2 µM)
How it was run: as §1

| Cell Line | relative viability (Mirin + Phenformin; first compound 0.25 µM) | relative viability (Mirin + Phenformin; first compound 2.5 µM) | relative viability (Mirin + Phenformin; first compound 7.906 µM) | relative viability (Mirin + Phenformin; first compound 25 µM) | relative viability ([1]; first compound 0.04 µM) | relative viability ([1]; first compound 0.1265 µM) | relative viability ([1]; first compound 0.4 µM) | relative viability ([1]; first compound 1.265 µM) | relative viability ([1]; first compound 4 µM) | relative viability (Mirin + OSI-027; first compound 0.25 µM) | relative viability (Mirin + OSI-027; first compound 2.5 µM) | relative viability (Mirin + OSI-027; first compound 7.906 µM) | relative viability (Mirin + OSI-027; first compound 25 µM) | relative viability ([2]; first compound 0.04 µM) | relative viability ([2]; first compound 0.1265 µM) | relative viability ([2]; first compound 0.4 µM) | relative viability ([2]; first compound 1.265 µM) | relative viability ([2]; first compound 4 µM) | relative viability (Mirin + Phenformin; first compound 0.7906 µM) | relative viability (Mirin + OSI-027; first compound 0.7906 µM) |
| --- | --- | --- | --- | --- | --- | --- | --- | --- | --- | --- | --- | --- | --- | --- | --- | --- | --- | --- | --- | --- |
| HCC-366 | 0.627 | 0.718 | 0.601 | 0.583 | 0.789 | 0.898 | 0.939 | 0.297 | 0.911 | 0.974 | 0.919 | 0.711 | 0.882 | 0.233 | 0.123 | 0.101 | 0.0314 | 0.0325 |  |  |
| NCI-H2085 | 0.804 | 0.749 | 0.655 | 0.654 | 0.825 | 0.608 | 0.728 | 0.328 | 0.724 | 0.873 | 0.748 | 0.603 | 0.584 | 1.09 | 0.924 | 0.927 | 0.634 | 0.787 | 0.756 | 0.674 |
| NCI-H522 | 0.608 | 0.6 | 0.574 | 0.559 | 0.656 | 0.771 | 0.575 | 0.627 | 0.675 | 0.705 | 0.762 | 0.688 | 0.62 | 0.697 | 0.821 | 0.549 | 0.689 | 0.474 | 0.621 | 0.513 |
| PC-3 [JPC-3] | 0.462 | 0.513 | 0.513 | 0.522 | 0.65 | 0.67 | 0.705 | 0.731 | 0.728 | 0.797 | 0.774 | 0.669 | 0.753 | 0.892 | 0.889 | 0.828 | 0.56 | 0.658 | 0.48 | 0.739 |
| HOP-62 | 0.608 | 0.726 | 0.596 | 0.723 | 0.81 | 0.794 | 0.756 | 0.757 | 0.85 | 0.836 | 0.846 | 0.663 | 0.688 | 0.774 | 0.443 | 0.468 | 0.227 | 0.19 | 0.707 | 0.787 |
| NCI-H2126 | 0.549 | 0.509 | 0.546 | 0.532 | 0.759 | 0.688 | 0.624 | 0.628 | 0.708 | 0.76 | 0.585 | 0.773 | 0.579 | 1.07 | 0.998 | 0.832 | 0.924 | 0.839 | 0.471 | 0.655 |
| NCI-H2087 | 0.494 | 0.454 | 0.429 | 0.613 | 0.584 | 0.56 | 0.385 | 0.451 | 0.5 | 0.633 | 0.374 | 0.253 | 0.358 | 1.45 | 1.11 | 1.13 | 0.845 | 0.867 | 0.559 | 0.436 |
| NCI-H1793 | 0.447 | 0.362 | 0.287 | 0.374 | 0.22 | 0.301 | 0.25 |  | 0.259 | 0.289 | 0.335 | 0.286 | 0.259 | 0.483 | 0.284 | 0.276 | 0.179 | 0.157 |  |  |
| RERF-LC-KJ | 0.37 | 0.418 | 0.487 | 0.461 | 0.517 | 0.584 | 0.602 | 0.517 | 0.601 | 0.691 | 0.596 | 0.651 | 0.425 | 0.941 | 0.956 | 0.448 | 0.298 | 0.538 | 0.543 | 0.59 |
| H3255 | 0.33 | 0.408 | 0.271 | 0.361 | 0.559 | 0.633 | 0.515 | 0.566 | 0.552 | 0.558 | 0.636 | 0.475 | 0.616 | 0.967 | 0.737 | 0.742 | 0.383 | 0.481 | 0.379 | 0.536 |
| EMC-BAC-2 | 0.57 | 0.559 | 0.401 | 0.49 | 0.37 | 0.37 | 0.386 |  | 0.375 | 0.389 | 0.337 | 0.307 | 0.312 | 1.17 | 1.01 | 0.504 | 0.476 | 0.32 | 0.57 | 0.378 |
| SW 900 | 0.732 | 0.488 | 0.597 | 0.629 | 0.529 | 0.543 | 0.539 | 0.421 | 0.476 | 0.487 | 0.701 | 0.434 | 0.75 | 0.668 | 0.59 | 0.647 | 0.435 | 0.495 | 0.654 | 0.597 |
| CAL-12T | 0.627 | 0.665 | 0.591 | 0.657 | 0.481 | 0.691 | 0.545 | 0.577 | 0.627 | 0.797 | 0.681 | 0.695 | 0.525 | 0.675 | 0.601 | 0.56 | 0.267 | 0.353 |  |  |
| NCI-H1355 | 0.472 | 0.456 | 0.47 | 0.521 | 0.433 | 0.406 | 0.373 | 0.327 | 0.391 | 0.411 | 0.379 | 0.406 | 0.424 | 0.676 | 0.684 | 0.369 | 0.313 | 0.217 | 0.463 | 0.376 |
| PC-14 | 0.595 | 0.659 | 0.553 | 0.814 | 0.871 | 0.814 | 0.809 | 0.766 | 0.82 | 0.872 | 0.792 |  | 0.728 | 0.334 | 0.323 | 0.218 | 0.215 | 0.232 | 0.509 | 0.742 |
| LK-2 | 0.408 | 0.363 | 0.203 | 0.167 | 0.17 | 0.22 | 0.182 | 0.165 | 0.23 | 0.195 | 0.198 | 0.138 | 0.146 | 0.525 | 0.583 | 0.156 | 0.113 | 0.284 |  | 0.154 |
| NCI-H441 | 0.763 | 0.782 | 0.718 | 0.628 | 0.478 | 0.611 | 0.543 | 0.56 | 0.6 | 0.673 | 0.598 | 0.473 | 0.602 | 1.34 | 1.05 | 1.21 | 0.961 | 0.698 | 0.876 | 0.6 |
